Test results from ChEMBL document CHEMBL1151522, “Syntheses of homoserine phosphate analogs as potential inhibitors of bacterial threonine synthase” (Bioorg Med Chem Lett, 1994).

What was measured:
[1] = Inhibition of threonine synthase in Escherichia coli
Escherichia coli [2] = experiment: Inhibition of Escherichia coli threonine synthase expressed as inactivation constant
[3] = Inhibition of threonine synthase in Escherichia coli; c: indicates No inhibition at 10 mM
Escherichia coli [4] = experiment: Inhibition of Escherichia coli threonine synthase expressed as inactivation constant; d: indicates competitive inhibitor

Work on `NC(CNCP(=O)(O)O)C(=O)O` (stereo not drawn) yielded a Ki [1] of 59 µM and a K inact (Escherichia coli [2]) of 1.44 min⁻¹.
For `NC(COCP(=O)(O)O)C(=O)O` (stereo not drawn), the Ki [3] was “No inhibition”.
In the case of `NC(C/C=C/P(=O)(O)O)C(=O)O` (stereo not drawn), the Ki [1] is reported as 540 µM and the K inact (Escherichia coli [4]) is reported as “Competitive inhibitor”.
For `NC(/C=C\CP(=O)(O)O)C(=O)O` (stereo not drawn), the Ki [1] was 100000 µM and the K inact (Escherichia coli [2]) was 1.5 min⁻¹.
In the case of `NC(CC#CP(=O)(O)O)C(=O)O` (stereo not drawn), the Ki [3] is reported as “No inhibition”.
In the case of `NC(CSCP(=O)(O)O)C(=O)O` (stereo not drawn), the Ki [1] is reported as 33 µM and the K inact (Escherichia coli [4]) is reported as “d”.
In the case of `NC(C/C=C\P(=O)(O)O)C(=O)O` (stereo not drawn), the Ki [3] is reported as “No inhibition”.
`NC(/C=C/CP(=O)(O)O)C(=O)O` (stereo not drawn) gave a Ki [1] of 400 µM and a K inact (Escherichia coli [2]) of 0.25 min⁻¹.
